{"source": "ChEMBL document CHEMBL1201862", "about": "“PubChem BioAssay data set” (2004)", "key": {"Paired box protein Pax-8": {"target": "Paired box protein Pax-8 (Homo sapiens, UniProt Q06710)", "sequence (Q06710 whole entry)": "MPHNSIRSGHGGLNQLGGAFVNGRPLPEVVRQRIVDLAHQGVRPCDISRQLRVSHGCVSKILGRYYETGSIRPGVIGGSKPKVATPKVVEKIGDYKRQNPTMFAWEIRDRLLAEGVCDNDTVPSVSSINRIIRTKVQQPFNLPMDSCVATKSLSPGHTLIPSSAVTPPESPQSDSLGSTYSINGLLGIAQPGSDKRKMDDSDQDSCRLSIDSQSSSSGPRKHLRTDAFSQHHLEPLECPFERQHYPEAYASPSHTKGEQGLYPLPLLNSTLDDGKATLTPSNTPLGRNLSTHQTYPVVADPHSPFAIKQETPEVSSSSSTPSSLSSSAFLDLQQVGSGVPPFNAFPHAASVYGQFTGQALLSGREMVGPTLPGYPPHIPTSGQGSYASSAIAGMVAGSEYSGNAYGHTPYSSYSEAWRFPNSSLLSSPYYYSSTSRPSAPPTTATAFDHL", "assay": "PAX8 transcriptional activity inhibition in RMG-I – RMG-I cells, luciferase, cherry-pick, dose response (AID 687027);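 note: luciferase reporter driven by Pax8 target thyroperoxidase promoter measured by SteadyGlo luminescence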", "type": "functional, cell-based"}, "[1]": {"assay": "inhibitors acting on PAX2 in cells – cell-based, plate reader, dry powder samples, selectivity assay for PAX8 inhibitor project, dose response (AID 743048);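 note: HEK293 cells carrying a WT1 promoter luciferase reporter driven by expressed Pax2; potency is for inhibition of Pax2 driven reporter signal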", "type": "functional"}, "[2]": {"assay": "OVCAR-3 cell viability loss – plate reader, dry powder samples, PAX8 inhibitor project, dose response (AID 743044)", "type": "functional, cell-based"}, "[3]": {"assay": "PAX5 cellular inhibition readout – cell-based, plate reader, dry powder samples, selectivity assay for PAX8 inhibitor project, dose response (AID 743047);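 note: HEK293 cells carrying a Pax5 driven CD19 promoter luciferase reporter; potency of inhibitors that lower reporter luminescence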", "type": "functional"}, "[4]": {"assay": "IGROV1 cell killing – plate reader, dry powder samples, PAX8 inhibitor project, dose response (AID 743043)", "type": "functional, cell-based", "details": "IGROV-1"}, "[5]": {"assay": "COV434 cell viability loss – plate reader, dry powder, SA7, cytotoxicity control for PAX8 inhibitor project, dose response (AID 743145)", "type": "functional, cell-based"}, "[6]": {"assay": "OV-90 cell viability loss – plate reader, dry powder, SA8, PAX8 inhibitor project, dose response (AID 743149)", "type": "functional, cell-based"}, "[7]": {"assay": "OVCAR8 cell viability loss – plate reader, dry powder samples, PAX8 project, dose response (AID 743197)", "type": "functional, cell-based", "details": "OVCAR-8"}, "[8]": {"assay": "PAX8-dependent cell viability loss – plate reader, dry powder, dose response (AID 743049)", "type": "functional, cell-based"}, "[9]": {"assay": "P. falciparum Dd2 growth inhibitors, dose response, SYBR Green, cherry-picked samples (AID 1159567)", "type": "functional, cell-based"}, "[10]": {"assay": "toxicity to human hepatoma HepG2 cells – cell-based, cherry-picked samples, cytotoxicity control, dose response (AID 1159577)", "type": "functional"}, "[11]": {"assay": "CellTiter-Glo luminescence survival assay, SW480 colon tumor line, concentration-response curve, half-maximal inhibitory concentration (AID 1117338)", "type": "functional"}, "[12]": {"assay": "RKO cell viability reduction, dose response, CellTiter-Glo luminescence (AID 1117322)", "type": "functional"}, "[13]": {"assay": "cytotoxicity toward HCT116 cells – cell-based, CellTiter-Glo luminescence, IC50, dose response (AID 1117332)", "type": "functional", "details": "HCT-116"}, "[14]": {"assay": "SNU-C1 cell viability reduction, dose response, CellTiter-Glo luminescence (AID 1117323)", "type": "functional, cell-based"}, "[15]": {"assay": "cytotoxicity toward Colo320 cells – cell-based, CellTiter-Glo luminescence, IC50, dose response (AID 1117334)", "type": "functional", "details": "COLO 320"}, "[16]": {"assay": "cytotoxicity toward HT-29 cells – cell-based, CellTiter-Glo luminescence, IC50, dose response (AID 1117330)", "type": "functional"}, "[17]": {"assay": "Reduced DLD-1 viability, concentration-response, CellTiter-Glo luminescence (AID 1117352)", "type": "functional"}, "[18]": {"assay": "HCT116 cell viability decrease, GSK3B pretreatment – CellTiter-Glo, IC50, dose response (AID 1117339)", "type": "functional", "details": "HCT-116"}, "[19]": {"assay": "viability loss in A549 lung cells – cell-based, 24 h, CellTiter-Glo luminescence, cherry-picks, cytotoxicity control, dose response (AID 1053115)", "type": "functional", "details": "A549, 24 h"}, "[20]": {"target": "G-protein coupled receptor 183 (Homo sapiens, UniProt P32249)", "sequence (P32249 whole entry)": "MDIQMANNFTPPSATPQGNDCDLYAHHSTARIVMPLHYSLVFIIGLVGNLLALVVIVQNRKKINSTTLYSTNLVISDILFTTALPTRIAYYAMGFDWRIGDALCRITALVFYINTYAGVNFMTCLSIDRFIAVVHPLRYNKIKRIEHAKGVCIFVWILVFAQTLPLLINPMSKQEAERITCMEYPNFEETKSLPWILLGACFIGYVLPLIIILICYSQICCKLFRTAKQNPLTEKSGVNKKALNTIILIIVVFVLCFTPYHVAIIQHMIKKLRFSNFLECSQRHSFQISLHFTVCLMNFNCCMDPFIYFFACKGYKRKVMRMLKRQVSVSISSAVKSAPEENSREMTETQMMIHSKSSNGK", "assay": "SAR confirmation of small molecule antagonists of the EBI2 receptor via a luminescent beta-arrestin assa.", "type": "functional"}, "[21]": {"assay": "Dd2 parasite growth inhibition in erythrocytes – SYBR Green, dry powder samples, set 4, dose response (AID 1159572)", "type": "functional, cell-based"}, "[22]": {"assay": "Orthopox viral replication plaque formation Measured in Cell-Based and Microorganism Combination System Using Imaging - 2142-05_Inhibitor_Dose_DryPowder_Activity.", "type": "functional"}}, "note": "Activity calls are given as the source filed them.", "data": [{"smiles": "COc1cccc(C#Cc2ccc([C@H]3[C@@H](CO)N(C(=O)c4ccccn4)[C@H]3C#N)cc2)c1", "values": [{"measurement": "AC50", "setting": "Paired box protein Pax-8", "result": "2.41 µM (active)"}, {"measurement": "AC50", "setting": "[1]", "result": "9.59 µM (active)"}, {"measurement": "AC50", "setting": "[2]", "result": "14.6 µM (active)"}, {"measurement": "AC50", "setting": "[3]", "result": "7.82 µM (active)"}, {"measurement": "AC50", "setting": "[4]", "result": "17.8 µM (active)"}, {"measurement": "AC50", "setting": "[5]", "result": "18.4 µM (active)"}, {"measurement": "AC50", "setting": "[6]", "result": "24.1 µM (active)"}, {"measurement": "AC50", "setting": "[7]", "result": "51.4 µM (active)"}, {"measurement": "AC50", "setting": "[8]", "result": "10.4 µM (active)"}, {"measurement": "AC50", "setting": "[9]", "result": "1.27 µM (active)"}, {"measurement": "AC50", "setting": "[10]", "result": "> 39 µM (inactive)"}]}, {"smiles": "CCCCCCCC[N+](C)(C)CCCCCCCC", "values": [{"measurement": "IC50", "setting": "[11]", "result": "3.46 µM (active)"}, {"measurement": "IC50", "setting": "[12]", "result": "2.18 µM (active)"}, {"measurement": "IC50", "setting": "[13]", "result": "6.24 µM (inactive)"}, {"measurement": "IC50", "setting": "[14]", "result": "1.44 µM (active)"}, {"measurement": "IC50", "setting": "[15]", "result": "4.66 µM (active)"}, {"measurement": "IC50", "setting": "[16]", "result": "4 µM (active)"}, {"measurement": "IC50", "setting": "[17]", "result": "3.22 µM (active)"}, {"measurement": "IC50", "setting": "[18]", "result": "3.69 µM (active)"}]}, {"smiles": "O=C(Nc1ccc2c(c1)[C@@H]1C[C@@H](CC(=O)N3CCc4ccccc4C3)O[C@@H](CO)[C@@H]1O2)Nc1ccccc1F", "values": [{"measurement": "AC50", "setting": "[19]", "result": "> 60 µM (inactive)"}]}, {"smiles": "Cc1ccccc1/C=C/C(=O)N1CCN(S(=O)(=O)c2ccc(Br)cc2)CC1", "values": [{"measurement": "IC50", "setting": "[20]", "result": "0.187 µM (active)"}]}, {"smiles": "COc1ccc2c3c([nH]c2c1)[C@H](CO)N(C(C)=O)CC31CCN(C(=O)c2cccc(F)c2)CC1", "values": [{"measurement": "AC50", "setting": "[21]", "result": "14.1 µM (active)"}]}, {"smiles": "CO[C@H]1CN(C)C(=O)c2ccc(NC(=O)c3ccc(F)cc3)cc2OC[C@H](C)N(C(=O)c2ccc(F)cc2)C[C@@H]1C", "values": [{"measurement": "AC50", "setting": "[22]", "result": "5.72 µM (active)"}]}]}
